The values that follow are results of earlier work, collected in US20230000905A1, “IODINE AND POLYOL COMPOSITION, METHOD, AND USE” (priority 2020, published 2023).

For the data set, the system named is rhinovirus. Particulars: molecular iodine at the tested concentrations.

On to `II` [molecular iodine], for which the “time to inactivate rhinovirus” value is 30 s.
